# Reference: the supplement of paper PMC10307832
# What was measured:
# Test in all cases: relative viability (nuclei count vs DMSO), 5 days (fraction); higher = more cells survive
# [1] = compound: CC1CC(=O)N(C2=CN=C(N=C2N1C3CCCC3)NC4=C(C=C(C=C4)C(=O)NC5CCN(CC5)C)OC)C [NPK76-II-72-1] + CC(=O)c1c(C)c2cnc(Nc3ccc(N4CCNCC4)cn3)nc2n(C2CCCC2)c1=O [Palbociclib] (partner 0.5 µM)
# Outline: (§1)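 After 5 days of treatment, lung cancer cells in 1536-well plates were fixed and stained in a single step (final 0.05% Triton X-100, 1% formaldehyde, 1 ug/ml Hoechst) and their nuclei counted on 4× images. Treatment had been applied by pin tool the day after seeding as one drug alone or as a fixed anchor-drug dose with five library-drug doses (not always all listed) in √10 steps. Relative viability is the nuclei count of treated wells divided by that of vehicle wells, and values are medians of duplicate plates.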
# [2] = compound: CC1CC(=O)N(C2=CN=C(N=C2N1C3CCCC3)NC4=C(C=C(C=C4)C(=O)NC5CCN(CC5)C)OC)C [NPK76-II-72-1] + Cc1nc(NC(=O)N2CCC[C@H]2C(N)=O)sc1-c1ccnc(C(C)(C)C(F)(F)F)c1 [Alpelisib] (partner 2 µM)
# Outline: as §1
# BI-2536 + Pictilisib = compound: CC[C@@H]1C(=O)N(C)c2cnc(Nc3ccc(C(=O)NC4CCN(C)CC4)cc3OC)nc2N1C1CCCC1 [BI-2536] + CS(=O)(=O)N1CCN(Cc2cc3nc(-c4cccc5[nH]ncc45)nc(N4CCOCC4)c3s2)CC1 [Pictilisib] (partner 1 µM)
# Outline: as §1
# BI-2536 + Pemetrexed = compound: CC[C@@H]1C(=O)N(C)c2cnc(Nc3ccc(C(=O)NC4CCN(C)CC4)cc3OC)nc2N1C1CCCC1 [BI-2536] + Nc1nc2[nH]cc(CCc3ccc(C(=O)N[C@@H](CCC(=O)O)C(=O)O)cc3)c2c(=O)[nH]1 [Pemetrexed] (partner 0.2 µM)
# Outline: as §1
Cell Line,relative viability ([1]; first compound 0.01 µM),relative viability ([1]; first compound 0.03162 µM),relative viability ([1]; first compound 0.1 µM),relative viability ([1]; first compound 0.3162 µM),relative viability ([1]; first compound 1 µM),relative viability ([2]; first compound 0.01 µM),relative viability ([2]; first compound 0.03162 µM),relative viability ([2]; first compound 0.1 µM),relative viability ([2]; first compound 0.3162 µM),relative viability ([2]; first compound 1 µM),relative viability (BI-2536 + Pictilisib; first compound 0.01 µM),relative viability (BI-2536 + Pictilisib; first compound 0.03162 µM),relative viability (BI-2536 + Pictilisib; first compound 0.1 µM),relative viability (BI-2536 + Pictilisib; first compound 0.3162 µM),relative viability (BI-2536 + Pictilisib; first compound 1 µM),relative viability (BI-2536 + Pemetrexed; first compound 0.01 µM),relative viability (BI-2536 + Pemetrexed; first compound 0.03162 µM),relative viability (BI-2536 + Pemetrexed; first compound 0.1 µM),relative viability (BI-2536 + Pemetrexed; first compound 0.3162 µM),relative viability (BI-2536 + Pemetrexed; first compound 1 µM)
NCI-H2009,0.178,0.195,0.213,0.262,0.2,1.19,1.25,1.02,1.14,1.15,0.779,0.358,0.179,0.137,0.103,1.07,1,0.674,0.223,0.274
HCC-15,0.722,0.849,0.705,0.694,0.745,0.828,0.965,0.875,0.919,0.97,0.746,0.795,0.365,0.124,0.117,0.228,0.211,0.197,0.179,0.179
HCC-44,0.982,1.08,0.993,0.935,1.01,0.771,0.854,0.76,0.789,0.809,0.68,0.769,0.257,0.0696,0.0951,0.738,0.612,0.651,0.38,0.246
COR-L23,0.264,0.304,0.314,0.29,0.342,0.638,0.821,0.815,0.815,0.822,0.636,0.593,0.101,0.0743,0.0991,0.216,0.206,0.178,0.144,0.133
HCC-78,0.423,0.44,0.425,0.385,0.502,,0.402,0.334,,0.337,0.26,0.25,0.166,0.13,0.0467,0.981,0.874,0.932,0.895,0.847
NCI-H2087,0.236,0.255,0.242,0.22,0.254,1.1,1.1,1.07,1.01,1.48,1,0.872,0.381,0.192,0.143,0.7,0.697,0.713,0.104,0.0907
BEN,0.432,0.478,0.45,0.509,0.48,0.967,1.05,1.01,1.02,1.09,0.574,0.48,0.389,0.235,0.209,0.676,0.83,0.447,0.325,0.422
LCLC-103H,,0.501,0.501,0.565,0.484,0.929,0.928,1.07,0.925,0.993,0.585,0.568,0.508,0.711,0.144,0.458,0.488,0.344,0.231,0.225
EKVX,0.334,0.401,0.368,,0.464,0.796,0.897,0.884,0.716,1.1,0.47,0.483,0.444,0.14,0.123,0.389,0.403,0.326,0.194,0.28
LXF-289,0.594,0.58,0.562,0.577,0.633,0.987,1.07,1.05,1.01,1.05,0.839,0.759,0.126,0.0466,0.0562,0.932,0.812,0.503,0.0709,0.0711
NCI-H650,0.332,0.366,0.3,0.303,0.356,1.15,1.23,0.952,,1.13,0.849,0.584,0.245,0.206,0.15,0.912,1.11,0.551,0.196,0.139
NCI-H2085,0.475,0.445,0.464,0.489,0.491,0.889,0.946,0.932,0.899,1,0.395,0.504,0.371,0.183,0.224,0.961,1.01,0.664,0.172,0.243
NCI-H1793,,0.324,0.352,0.256,0.366,0.611,0.679,0.677,0.521,0.788,0.294,0.214,0.191,0.174,0.159,0.876,1.04,0.197,0.171,0.175
LC-2-ad,0.491,0.508,0.537,0.498,0.475,0.845,0.921,0.838,0.936,1,0.552,0.192,0.0937,0.0909,0.0871,0.281,0.234,0.171,0.165,0.177
COR-L 105,0.389,0.417,0.379,0.439,0.469,0.908,0.907,1.13,0.905,1.13,0.437,0.358,0.23,0.237,0.216,0.986,1.13,1.01,0.384,0.362
NCI-H1355,0.377,0.427,0.397,0.383,0.439,0.834,0.827,0.544,0.755,0.849,0.477,0.43,0.227,0.161,0.184,1.04,1,0.899,0.211,0.174

Cell Line,relative viability ([1]; first compound 0.01 µM),relative viability ([1]; first compound 0.03162 µM),relative viability ([1]; first compound 0.1 µM),relative viability ([1]; first compound 0.3162 µM),relative viability ([1]; first compound 1 µM),relative viability ([2]; first compound 0.01 µM),relative viability ([2]; first compound 0.03162 µM),relative viability ([2]; first compound 0.1 µM),relative viability ([2]; first compound 0.3162 µM),relative viability ([2]; first compound 1 µM),relative viability (BI-2536 + Pictilisib; first compound 0.01 µM),relative viability (BI-2536 + Pictilisib; first compound 0.03162 µM),relative viability (BI-2536 + Pictilisib; first compound 0.1 µM),relative viability (BI-2536 + Pictilisib; first compound 0.3162 µM),relative viability (BI-2536 + Pictilisib; first compound 1 µM),relative viability (BI-2536 + Pemetrexed; first compound 0.01 µM),relative viability (BI-2536 + Pemetrexed; first compound 0.03162 µM),relative viability (BI-2536 + Pemetrexed; first compound 0.1 µM),relative viability (BI-2536 + Pemetrexed; first compound 0.3162 µM),relative viability (BI-2536 + Pemetrexed; first compound 1 µM)
H3255,0.351,0.319,0.305,0.3,0.304,0.683,0.663,0.721,,0.934,0.503,0.503,0.305,0.176,0.182,0.543,0.528,0.492,0.248,0.268
NCI-H1993,0.629,0.647,0.616,0.563,0.682,0.706,0.65,0.62,0.655,0.664,0.981,0.681,0.638,0.664,0.631,0.64,0.569,0.421,0.393,0.435
NCI-H1734,0.328,0.348,0.345,0.321,0.384,0.675,0.628,0.722,0.599,0.86,0.402,0.387,0.347,0.17,0.216,0.39,0.36,0.279,0.211,0.188
HOP-62,0.397,0.458,0.462,0.438,0.511,1.08,0.999,0.871,1.1,1.12,0.704,0.965,0.159,0.0849,0.127,0.394,0.29,0.225,0.109,0.151
LOU-NH91,0.538,0.52,0.496,0.52,0.528,0.682,0.72,0.719,0.563,0.814,0.545,0.516,0.474,0.284,0.276,0.38,0.39,0.284,0.26,0.336
NCI-H2228,0.759,0.912,0.729,0.6,0.747,0.595,0.81,0.555,0.733,0.807,0.39,0.374,0.218,0.13,0.165,0.382,0.385,0.131,0.194,0.14
PC-14,0.514,0.593,0.438,0.505,0.545,0.943,0.956,0.946,0.916,1.04,0.688,0.563,0.156,0.0423,0.0236,0.15,0.14,0.132,0.0335,0.0205
NCI-H1437,0.31,0.311,0.292,0.272,0.3,0.972,0.945,0.974,0.898,1,0.428,0.427,0.397,0.098,0.099,0.321,0.288,0.267,0.227,0.212
NCI-H460,0.157,0.105,0.225,0.121,0.219,0.469,0.541,0.478,0.442,0.497,0.276,0.375,0.33,0.0337,0.0494,0.0637,0.0517,0.0606,0.0204,0.0163
NCI-H1666,0.64,0.62,0.652,0.6,0.67,0.951,0.957,1.02,0.911,1.01,0.558,0.393,0.2,0.221,0.2,0.822,0.881,0.831,0.543,0.57
NCI-H1651,0.512,0.535,0.483,0.48,0.558,0.887,1.03,0.893,0.852,1.04,0.524,0.372,0.488,0.0623,0.055,0.613,0.583,0.511,0.139,0.0892
NCI-H1755,0.453,0.441,0.464,0.453,0.479,0.883,0.983,0.91,0.896,0.938,0.424,0.399,0.157,0.151,0.175,0.456,0.371,0.295,0.359,0.291
NCI-H661,0.424,0.37,0.418,0.346,0.435,0.609,0.665,0.886,0.451,0.797,0.411,0.37,0.255,0.247,0.217,0.936,0.61,0.449,0.293,0.289
HARA,0.27,0.267,0.254,0.21,0.295,0.783,0.975,0.822,0.523,0.983,0.372,0.535,0.147,0.072,0.0745,0.258,0.313,0.222,0.146,0.126
NCI-H23,0.537,0.504,0.412,0.501,0.6,0.759,0.871,,0.657,0.804,0.424,0.272,0.169,0.139,0.14,0.619,0.756,0.201,0.128,0.182
LCLC-97TM1,0.196,0.215,0.209,0.211,0.203,,0.24,0.18,0.235,0.257,0.182,0.185,0.127,0.11,0.0962,0.176,0.159,0.0973,0.0981,0.0935
